Reference: patent publication US10689357B2, “N-acylethanolamine hydrolyzing acid amidase (NAAA) inhibitors and use thereof” (Northeastern University, priority 2018, dated 2020)

Target: hNAAA (Homo sapiens (Human), UniProt Q02083)
Assay: NAAA fluorescence-based inhibition assay with PAMCA substrate
Type: biochemical
Conditions: purified activated hNAAA, PAMCA 5 μM, pH 4.5, 37° C.
Source text: In order to have an assay method more conducive to high-throughput screening than those published for measuring the NAE hydrolyzing activity of NAAA [Proc. Natl. Acad. Sci. USA. 2009; 106(49):20966-71], the fluorogenic PEA analog N-(4-methyl coumarin)palmitamide (PAMCA), which is hydrolyzed to fluorescent 7-amino-4-methyl coumarin (AMC) and palmitic acid, was developed. [J. Proteome Res. 2012; 11(2):972-981], [PloS One. 2012; 7: e43877]. For three point concentration inhibition assays with hNAAA the following procedure was used. Purified activated NAAA (final concentration of 0.25 μg/mL) was incubated in assay buffer (100 mM citrate-phosphate buffer, pH 4.5, 3 mM DTT, 0.1% Triton X-100, 0.05% BSA, and 150 mM NaCl) made up to a total volume of 180 μL, followed by addition of the compound dissolved in 10 μL DMSO (along with DMSO neat for the control sample) with the final concentrations for each compound of 100, 10, and 1 μM, in triplicate on a 96 well plate. These samples were allowed to incubate for 15 min at room temperature and then 10 μL of a PAMCA stock solution in DMSO (final PAMCA concentration [5 μM]) was added. After 5 minutes of agitation on a shaking plate, the reaction was allowed to proceed at 37° C. for 120 minutes, with fluorescence readings taken every 10 minutes at a wavelength of 460 nm (using an excitation wavelength of 360 nm) on a Synergy HT Plate Reader using Gen5 software from Bio-Tek. The enzyme activity was calculated by converting the relative fluorescence units to AMC formed, using a standard curve of AMC.
For compounds that inhibit hNAAA in range IC50<1 μM, full inhibition curves using eight different concentrations of inhibitor (8 point assay) were generated. The assay procedure used was the same as the three point assay. For ostensibly covalent compounds (as observed by a significant decrease in the slope of a plot of fluorescence vs. time in three point screen), samples were allowed to incubate for 2 hours at 37° C., instead of 15 minutes, before addition of 10 μL of a PAMCA stock solution in DMSO for a final PAMCA concentration of 5 μM. After 5 minutes of agitation on a shaking plate, the reaction was allowed to proceed at 37° C. for 120 minutes. Inhibition constants were calculated using pro Fit software (Quantum Soft, Uetikon am See, Switzerland) and a Levenberg-Marquardt algorithm.

Sequence of hNAAA (Q02083 29-125): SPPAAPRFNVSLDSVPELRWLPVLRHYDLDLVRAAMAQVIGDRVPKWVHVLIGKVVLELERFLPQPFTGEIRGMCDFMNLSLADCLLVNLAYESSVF
Sequence of hNAAA (Q02083 126-359): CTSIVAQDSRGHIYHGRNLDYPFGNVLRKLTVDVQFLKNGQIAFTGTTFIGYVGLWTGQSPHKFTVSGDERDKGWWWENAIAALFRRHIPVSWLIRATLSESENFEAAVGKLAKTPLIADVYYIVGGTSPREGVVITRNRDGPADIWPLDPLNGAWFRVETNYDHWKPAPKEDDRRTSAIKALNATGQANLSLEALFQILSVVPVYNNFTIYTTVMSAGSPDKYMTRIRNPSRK

| SMILES | IC50 |
| --- | --- |
| COc1ccc(/C=C/C(=O)N[C@H]2C[C@@H](N=C=S)C2)cc1 [Example 1, (E)-N-((1s, 3s)-3-Isothiocyanatocyclobutyl)-3-(4-methoxyphenyl)acrylamide] | > 1000 nM |
| COc1cccc(-c2ccc(C(=O)N[C@H]3C[C@@H](N=C=S)C3)cc2)c1 [Example 2, N-((1r, 3r)-3-Isothiocyanatocyclobutyl)-3′-methoxy-[1,1′-biphenyl]-4-carboxamide] | 110 to 1000 nM |
| COc1cccc(-c2ccc(C(=O)O[C@H]3C[C@@H](N=C=S)C3)cc2)c1 [Example 3, (1r, 3r)-3-Isothiocyanatocyclobutyl 3′-methoxy-[1,1′-biphenyl]-4-carboxylate] | 10 to 100 nM |
| COc1ccc(Oc2ccc(C(=O)N[C@H]3C[C@H](N=C=S)C3)cc2)cc1 [Example 4, N-((1r, 3r)-3-Isothiocyanatocyclobutyl)-4-(4-methoxyphenoxy)benzamide] | > 1000 nM |
| O=C(N[C@H]1C[C@@H](N=C=S)C1)c1ccc(N2CCOCC2)cc1 [Example 5, N-((1r, 3r)-3-Isothiocyanatocyclobutyl)-4-morpholinobenzamide] | > 1000 nM |
| O=C(N[C@H]1C[C@@H](N=C=S)C1)c1ccc(Oc2cccnc2)cc1 [Example 6, N-((1r, 3r)-3-Isothiocyanatocyclobutyl)-4-(pyridin-3-yloxy)benzamide] | 110 to 1000 nM |
| COc1ccc(-c2ccc(C(=O)N[C@H]3C[C@@H](N=C=S)C3)c(F)c2)cc1 [Example 7, 3-Fluoro-N-((1r, 3r)-3-isothiocyanatocyclobutyl)-4′-methoxy-[1,1′-biphenyl]-4-carboxamide] | 10 to 100 nM |
| COc1ccc(-c2ccc(C(=O)O[C@H]3C[C@@H](N=C=S)C3)c(F)c2)cc1 [Example 8, (1r, 3r)-3-Isothiocyanatocyclobutyl 3-fluoro-4′-methoxy-[1,1′-biphenyl]-4-carboxylate] | 10 to 100 nM |
| COc1ccc(-c2ccc(C(=O)N[C@]34C[C@](N=C=S)(C3)C4)c(F)c2)cc1 [Example 9, 3-Fluoro-N-(3-isothiocyanatobicyclo[1.1.1]pentan-1-yl)-4′-methoxy-[1,1′-biphenyl]-4-carboxamide] | > 1000 nM |
| COc1ccc2cc(C(=O)N[C@H]3C[C@@H](N=C=S)C3)ccc2c1 [Example 10, N-((1s, 3 s)-3-Isothiocyanatocyclobutyl)-6-methoxy-2-naphthamide] | > 1000 nM |
| CC[C@H]1CC[C@H](c2ccc(C(=O)N[C@H]3C[C@@H](N=C=S)C3)cc2)CC1 [Example 11, 4-((1s, 4s)-4-Ethylcyclohexyl)-N-((1r, 3R)-3-isothiocyanatocyclobutyl) benzamide] | > 1000 nM |
| COc1ccc(CCC(=O)N[C@H]2C[C@@H](N=C=S)C2)cc1 [Example 12, N-((1r, 3r)-3-Isothiocyanatocyclobutyl)-3-(4-methoxyphenyl)propanamide] | 110 to 1000 nM |
| COc1ccc(C#CC(=O)N[C@H]2C[C@@H](N=C=S)C2)cc1 [Example 13, N-((1r, 3r)-3-Isothiocyanatocyclobutyl)-3-(4-methoxyphenyl)propiolamide] | 110 to 1000 nM |
| COc1ccc(C2CC2C(=O)N[C@H]2C[C@@H](N=C=S)C2)cc1 (some centres unmarked) [Example 14, N-((1r, 3r)-3-Isothiocyanatocyclobutyl)-2-(4-methoxyphenyl)cyclopropane-1-carboxamide] | 10 to 100 nM |
| COc1ccc(CCCC(=O)N[C@H]2C[C@@H](N=C=S)C2)cc1 [Example 15, N-((1r, 3r)-3-Isothiocyanatocyclobutyl)-4-(4-methoxyphenyl)butanamide] | 10 to 100 nM |
| COc1ccc(-c2cc(C(=O)N[C@H]3C[C@@H](N=C=S)C3)on2)cc1 [Example 16, N-((1r, 3r)-3-Isothiocyanatocyclobutyl)-3-(4-methoxyphenyl)isoxazole-5-carboxamide] | 10 to 100 nM |
| COc1ccc(N2CCC(C(=O)N[C@H]3C[C@@H](N=C=S)C3)CC2)cc1 [Example 17, N-((1r, 3 r)-3-Isothiocyanatocyclobutyl)-1-(4-methoxyphenyl)piperidine-4-carboxamide] | 110 to 1000 nM |
| COc1ccc(-c2ccc(C(=O)N[C@H]3C[C@@H](N=C=S)C3)nc2)cc1 [Example 18, N-((1s, 3 s)-3-Isothiocyanatocyclobutyl)-5-(4-methoxyphenyl)picolinamide] | 10 to 100 nM |

| SMILES | IC50 |
| --- | --- |
| COc1ccc(-c2ccc(C(=O)N[C@H]3C[C@@H](N=C=S)C3)nc2)cc1F [Example 19, 5-(3-Fluoro-4-methoxyphenyl)-N-((1r, 3r)-3-isothiocyanatocyclobutyl) picolinamide] | 10 to 100 nM |
| COc1cccc(-c2ccc(C(=O)N[C@H]3C[C@@H](N=C=S)C3)nc2)c1 [Example 20, N-((1r, 3r)-3-Isothiocyanatocyclobutyl)-5-(3-methoxyphenyl)picolinamide] | 110 to 1000 nM |
| COc1ccc(-c2cnc(C(=O)N[C@H]3C[C@@H](N=C=S)C3)cn2)cc1 [Example 22, N-((1r, 3r)-3-Isothiocyanatocyclobutyl)-5-(4-methoxyphenyl)pyrazine-2-carboxamide] | 110 to 1000 nM |
| N#Cc1ccc(-c2ccc(C(=O)N[C@H]3C[C@@H](N=C=S)C3)nc2)cc1 [Example 23, 5-(4-cyanophenyl)-N-((1r, 3r)-3-Isothiocyanatocyclobutyl)picolinamide] | 110 to 1000 nM |
| COc1ccc(Nc2ccc(C(=O)N[C@H]3C[C@@H](N=C=S)C3)nc2)cc1 [Example 24, N-((1r, 3r)-3-Isothiocyanatocyclobutyl)-5-((4-methoxyphenyl)amino) picolinamide] | > 1000 nM |
| COc1ccc(-c2ccc(S(=O)(=O)N[C@H]3C[C@@H](N=C=S)C3)cc2)cc1 [Example 25, N-((1r, 3r)-3-Isothiocyanatocyclobutyl)-4′-methoxy-[1,1′-biphenyl]-4-sulfonamide] | 10 to 100 nM |
| COc1ccc(-c2ccc(S(=O)(=O)N[C@H]3C[C@@H](N=C=S)C3)nc2)cc1 [Example 26, N-((1s, 3s)-3-Isothiocyanatocyclobutyl)-5-(4-methoxyphenyl)pyridine-2-sulfonamide] | 10 to 100 nM |
| COc1ccc(-c2ccc(S(=O)(=O)O[C@H]3C[C@@H](N=C=S)C3)cc2)cc1 [Example 27, (1s, 3 s)-3-Isothiocyanatocyclobutyl 4′-methoxy-[1,1′-biphenyl]-4-sulfonate] | 10 to 100 nM |
| COc1ccc(-c2ccc(C(=O)O[C@H]3C[C@@H](N=C=S)C3)c(F)c2)cc1F [Example 28, (1s,3s)-3-isothiocyanatocyclobutyl 3,3′-difluoro-4′-methoxy-[1,1′-biphenyl]-4-carboxylate] | 10 to 100 nM |
| COc1ccc(-c2ccc(C(=O)N[C@H]3C[C@@H](N=C=S)C3)c(F)c2)cc1F [Example 29, 3,3′-Difluoro-N-((1s,3s)-3-isothiocyanatocyclobutyl)-4′-methoxy-[1,1′-biphenyl]-4-carboxamide] | 10 to 100 nM |
| COc1ccc(-c2ccc(S(=O)(=O)N[C@H]3C[C@@H](N=C=S)C3)cc2)cc1F [Example 30, 3′-Fluoro-N-((1s,3s)-3-isothiocyanatocyclobutyl)-4′-methoxy-[1,1′-biphenyl]-4-sulfonamide] | 10 to 100 nM |
| COc1ccc(-c2ccc(S(=O)(=O)O[C@H]3C[C@@H](N=C=S)C3)cc2)cc1F [Example 31, (1s,3s)-3-Isothiocyanatocyclobutyl 3′-fluoro-4′-methoxy-[1,1′-biphenyl]-4-sulfonate] | 10 to 100 nM |
| O=C(CCCCCc1ccccc1)N[C@H]1C[C@@H](N=C=S)C1 [Example 32, N-(1s,3s)-(3-Isothiocyanatocyclobutyl)-6-phenylhexanamide] | 10 to 100 nM |
| COc1ccc(-c2ccc(OC(=O)N[C@H]3C[C@@H](N=C=S)C3)cc2)cc1 [Example 33, 4′-Methoxy-[1,1′-biphenyl]-4-yl ((1s,3s)-3-isothiocyanatocyclobutyl)carbamate] | 10 to 100 nM |
| COc1ccc(-c2ccc(C(=O)N[C@H]3C[C@@H](N=C=S)C3)nc2)nc1 [Example 34, N-(cis-(3-Isothiocyanatocyclobutyl))-5-methoxy-[2,3′-bipyridine]-6′-carboxamide] | 10 to 100 nM |
| COc1ccc(-c2ncc(C(=O)N[C@H]3C[C@@H](N=C=S)C3)o2)cc1 [Example 35, N-((cis)-3-isothiocyanatocyclobutyl)-2-(4-methoxyphenyl)oxazole-5-carboxamide] | 110 to 1000 nM |
| COc1ccc(N2CC(C(=O)N[C@H]3C[C@@H](N=C=S)C3)C2)cc1 [Example 36, N-((1s,3s)-3-Isothiocyanatocyclobutyl)-1-(4-methoxyphenyl)azetidine-3-carboxamide] | 110 to 1000 nM |
